Data on 3 compounds can be found in patent US20040039027A1, “Benzimidazole compounds, process for producing the same and use thereof” (priority 2000, published 2004).

The series is described as follows: Stability test in artificial gastric juice. It is filed as physicochemical. The conditions noted are these: artificial gastric juice with acetonitrile, pH 1.2, artificial gastric juice pH ca. 1.2 with acetonitrile, 37° C.; calculated assuming pseudo-first-order decomposition. How it is done:
Stability Test in Artificial Gastric Juice
2-[[[3-Methyl-4-(2,2,2-trifluoroethoxy)-2-pyridyl]methyl]sulfinyl]-1H-benzimidazole(lansoprazole) and the compounds (ca. 1-2 mg) of Examples 1, 2 and 18 were respectively dissolved in acetonitrile (1 mL). To each solution (0.2 mL) were added acetonitrile (1 mL) and artificial gastric juice (3 mL, a solution prepared by dissolving sodium chloride (2.0 g) in hydrochloric acid (7.0 mL) and adding water to the amount of 1000 mL, pH ca. 1.2), and the stability of each compound after preservation at 37° C. was examined. Samples were taken immediately after addition of acetonitrile and artificial gastric juice, and 4, 8, 12, 16 and 20 hours thereafter, analyzed under the following HPLC analysis conditions, and the half-life was calculated on the assumption that the decomposition of the compound was a pseudo-first-order reaction. […]
detection wavelength: UV 285 nm column: YMC Pro C18 75 mm×4.6 mm I.D. mobile phase: the proportion of mobile phase A (0.01 mol/L aqueous ammonium acetate solution) and mobile phase B (acetonitrile) was changed with the lapse of time as in the following.
10 min. from immediately after addition: mobile phase A/mobile phase B=60/40→10/90 10 min. to 15 min.: mobile phase A/mobile phase B=10/90
15.1 min. to 20 min.: mobile phase A/mobile phase B=60/40 flow rate: 1.0 mL/min. column temperature: 25° C.

Regarding `Cc1c(OCC(F)(F)F)ccnc1C[S+]([O-])c1nc2ccccc2n1COC(=O)c1ccccc1` (stereo not drawn) [Example 1, [2-[[[3-Methyl-4-(2,2,2-trifluoroethoxy)-2-pyridinyl]methyl]sulfinyl]-1H-benzimidazol-1-yl]methyl benzoate], the half-life is no less than 240 min.

Regarding `CCCOC(=O)OCn1c([S+]([O-])Cc2nccc(OCC(F)(F)F)c2C)nc2ccccc21` (stereo not drawn) [Example 18, [2-[[[3-Methyl-4-(2,2,2-trifluoroethoxy)-2-pyridinyl]methyl]sulfinyl]-1H-benzimidazol-1-yl]methyl propyl carbonate], the half-life is no less than 240 min.

Turning to `Cc1c(OCC(F)(F)F)ccnc1C[S+]([O-])c1nc2ccccc2[nH]1` (stereo not drawn) [lansoprazole, 2-[[[3-Methyl-4-(2,2,2-trifluoroethoxy)-2-pyridyl]methyl]sulfinyl]-1H-benzimidazole, reference compound], the half-life was less than 1.8 min.

In general, half-life refers to how long it takes for the measured level to halve.
